ChEMBL document CHEMBL1153535, “Nitazoxanide kills replicating and nonreplicating Mycobacterium tuberculosis and evades resistance” (J Med Chem, 2009)
In brackets after ≈: the same amount, converted by molar mass.

Columns and labels:
[1] = system: Cryptosporidium; assay: Antimicrobial activity against Cryptosporidium; type: functional
[2] = system: Mycobacterium tuberculosis; assay: Antimycobacterial activity against Mycobacterium tuberculosis H37Rv after 8 days in presence of 0.04 to 5 mg/mL of BSA; type: functional; conditions: 192 h
[3] = system: Mycobacterium tuberculosis; assay: Antimycobacterial activity against replicating Mycobacterium tuberculosis H37Rv at 62 ug/mL assessed as reduction of log10CFU/mL after 10 days; type: functional
[4] = system: Mycobacterium tuberculosis; assay: Antimycobacterial activity against non-replicating Mycobacterium tuberculosis H37Rv at 125 ug/mL assessed as reduction of log10CFU/mL after 4 days relative to control; type: functional
[5] = system: Mycobacterium tuberculosis; assay: Antimycobacterial activity against replicating Mycobacterium tuberculosis H37Rv at 125 ug/mL assessed as reduction of log10CFU/mL after 4 days relative to control; type: functional
[6] = system: Mycobacterium tuberculosis; assay: Antimycobacterial activity against non-replicating Mycobacterium tuberculosis H37Rv at 62 ug/mL assessed as reduction of log10CFU/mL after 6 days relative to control; type: functional
[7] = system: Mycobacterium tuberculosis; assay: Antimycobacterial activity against replicating Mycobacterium tuberculosis H37Rv at 62 ug/mL assessed as reduction of log10CFU/mL after 4 days; type: functional
[8] = system: Mycobacterium tuberculosis; assay: Antimycobacterial activity against Mycobacterium tuberculosis H37Rv in 7H9 liquid medium after 7 days; type: functional; conditions: 168 h
[9] = system: Mycobacterium tuberculosis; assay: Antimycobacterial activity against Mycobacterium tuberculosis H37Rv in 7H11 solid medium after 7 days; type: functional; conditions: 168 h
[10] = system: Mycobacterium tuberculosis; assay: Antimycobacterial activity against replicating Mycobacterium tuberculosis H37Rv at 62 ug/mL assessed as reduction of log10CFU/mL; type: functional, organism-based; conditions: TDE = time-dependent effect
[11] = system: Giardia; assay: Antimicrobial activity against Giardia; type: functional, organism-based
[12] = system: Mycobacterium tuberculosis; assay: Antimycobacterial activity against Mycobacterium tuberculosis H37Rv after 8 days in absence of BSA; type: functional; conditions: 192 h
[13] = Cmax in human plasma at 500 mg, po; type: ADME, organism-based; parameters: dose 500 mg, route oral

CC(=O)Oc1ccccc1C(=O)Nc1ncc([N+](=O)[O-])s1 [NITAZOXANIDE]
MIC [1]: 10 µg/mL (≈ 32.5 µM) | MIC [2]: 16 µg/mL | Activity [3]: 3.5 | Activity [4]: 6 | Activity [5]: 2 | Activity [6]: >=5 | Activity [7]: 1 | MIC [8]: 16 µg/mL (≈ 52.1 µM) | MIC [9]: 16 µg/mL (≈ 52.1 µM) | Activity [10]: tde | IC50 [11]: 2.5 µg/mL (≈ 8.14 µM) | MIC [12]: 1 µg/mL (≈ 3.25 µM)

O=C(Nc1ncc([N+](=O)[O-])s1)c1ccccc1O [TIZOXANIDE]
MIC [8]: 16 µg/mL (≈ 60.3 µM) | Cmax [13]: 10600 ng/mL
